Experimental data taken from patent US20110208153A1, “FORMULATIONS AND METHODS FOR NUTRIENT DELIVERY” (priority 2010, published 2011).

Tested on: pre-retinal neovascularization
Test: pre-retinal neovascularization in the OIR mouse model following gavage treatments
Type: in vivo
Conditions: for pre-retinal neovascularization relative to vehicle control: P<0.05
Source text: FIG. 1 provides a graphical summary of the analysis of pre-retinal neovascularization levels in the mouse model following gavage treatments. The numbers in brackets in the legend refer to gavage doses in g/kg bodyweight/day. An * indicates P-values<0.05.

| Molecule | effect on pre-retinal neovascularization (in words) | pre-retinal neovascularization relative to vehicle control (5 g/kg of body weight/day) | pre-retinal neovascularization relative to vehicle control (2.5 g/kg body weight/day) |
| --- | --- | --- | --- |
| arginyl-glutamine dipeptide [Arg-Gln dipeptide] | dose-dependent reduction | 39±6% | – |
| CC/C=C\C/C=C\C/C=C\C/C=C\C/C=C\C/C=C\CCC(=O)O [DHA, docosahexaenoic acid] | – | – | 49±4% |
